According to article PMC5571211 (Scientific Reports, 2017):

Columns and labels:
[1] = tested on: HEK293 cells expressing 5-LOX and FLAP; assay: 5-LOX product formation in HEK293 cells expressing 5-LOX and FLAP; assay type: cell-based; settings: HEK293 expressing 5-LOX and FLAP, A23187 plus 3 µM AA
Experimental: HEK293 cells were cultured in monolayers (37 °C, 5% CO2) in DMEM containing FCS (10%), penicillin (100 U/mL) and streptomycin (100 µg/mL). HEK293 cell lines stably expressing 5-LOX with or without FLAP were selected using geneticin (400 µg/mL) with or without hygromycin (200 µg/mL), respectively, as previously described. Transfection of HEK293 was performed using pcDNA3.1 plasmids and lipofectamine according to the manufacturer’s instructions (Invitrogen, Darmstadt, Germany).
For analysis of 5-LOX product formation in HEK293 cells stably expressing 5-LOX with or without FLAP, cells were harvested by trypsinization, pelleted (1,200 rpm, 5 min, 4 °C) and resuspended in PGC buffer to a final concentration of 1 × 10^6 cells/mL. Aliquots were pre-incubated with test compounds or 0.1% DMSO for 15 min, respectively, and stimulated with 2.5 µM A23187 and 3 µM AA.

recombinant human COX-2 = molecular target: T1, recombinant human COX-2 (Homo sapiens, UniProt P35354); assay: COX-2 activity, cell-free (12-HHT formation); assay type: biochemical; settings: 10 µM
T1 construct: purchased Cayman Chemical (Biomol, Hamburg, Germany)
T1 sequence (P35354 18-604): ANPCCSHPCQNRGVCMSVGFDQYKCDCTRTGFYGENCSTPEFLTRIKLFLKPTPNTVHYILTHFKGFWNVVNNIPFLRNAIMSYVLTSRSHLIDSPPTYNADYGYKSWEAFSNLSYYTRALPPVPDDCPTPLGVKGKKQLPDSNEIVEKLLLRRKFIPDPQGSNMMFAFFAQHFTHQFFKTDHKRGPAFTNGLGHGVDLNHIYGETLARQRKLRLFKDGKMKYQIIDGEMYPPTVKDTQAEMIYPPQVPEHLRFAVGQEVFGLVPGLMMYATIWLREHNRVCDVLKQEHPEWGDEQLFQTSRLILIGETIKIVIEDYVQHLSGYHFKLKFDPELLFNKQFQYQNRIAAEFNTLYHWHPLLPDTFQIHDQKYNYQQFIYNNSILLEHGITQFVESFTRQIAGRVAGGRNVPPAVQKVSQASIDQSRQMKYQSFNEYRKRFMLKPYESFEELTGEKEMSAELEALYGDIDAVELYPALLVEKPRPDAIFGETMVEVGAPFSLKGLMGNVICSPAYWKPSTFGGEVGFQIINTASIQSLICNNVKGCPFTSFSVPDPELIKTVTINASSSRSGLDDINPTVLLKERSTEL
Experimental: COX activity was assayed by using purified ovine COX-1 and recombinant human COX-2, respectively. Enzymes were diluted in Tris buffer (100 mM, pH 8) supplemented with glutathione (5 mM), EDTA (100 µM) and hemoglobin (5 µM) to a final concentration of 50 U/mL (COX-1) or 20 U/mL (COX-2) and pre-incubated with test compounds or vehicle (0.1% DMSO) for 5 min at RT. After 30 sec at 37 °C, reactions were started with 5 µM AA (COX-1) or 2 µM AA (COX-2) and stopped after 5 min at 37 °C by addition of one volume of ice-cold methanol. Solid phase extraction was performed as described above after addition of 200 ng of internal PGB1 standard and COX product formation was determined by analysis of 12-HHT formation as reported before.

Cc1cc(OCc2nc3ccccc3s2)ccc1NC(=O)Nc1ccc(Cl)c(Cl)c1 [diflapolin, N-[4-(benzothiazol-2-ylmethoxy)-2-methylphenyl]-N′-(3,4-dichlorophenyl)urea]
inhibition of 5-LOX product formation [1]: strongly inhibited | inhibition of COX-2 activity (recombinant human COX-2): did not significantly inhibit
